# Literature values, collected in patent US8097644B2, “Indole compounds having sphingosine-1-phosphate (S1P) receptor antagonist” (Allergan, Inc., priority 2006, dated 2012).
# Legend:
# [1] = test system: cardiac G protein-gated potassium channel IKACh; details: whole-cell recordings
# perfused porcine eyes = perfused porcine eyes (IOVS 45, 2263; 2004)
Compound,myocytes responding to acetylcholine in which an inwardly rectifying potassium current was evoked [1],decrease of outflow facility (perfused porcine eyes)
CCCCCCCCc1ccc(CC[C@](N)(CO)COP(=O)(O)O)cc1 [FTY720-P],~90%,
"CCCCCCCCCCCCC/C=C/[C@@H](O)[C@@H](N)COP(=O)(O)O [Example S1P, Sphingosine-1-Phosphate]",,> 30%
